{"source": "paper PMC11279551", "about": "“Pharmacokinetics and Enterohepatic Circulation of 2-(Quinoline-8-carboxamido)benzoic Acid (2-QBA) in Mice” (Pharmaceutics, 2024)", "key": {"[1]": {"test": "Intestinal permeability in Ussing chamber", "format": "in vitro ADME, mice", "settings": "mouse, pH 7.4; range over intestinal segments, n = 3; read-out: permeability of marker compounds", "method": "The small intestines were isolated from fasted mice under isoflurane anesthesia (1–3% with oxygen gas flow) and dissected into three parts, the jejunum, upper ileum, and lower ileum. […] The intestinal permeability of 2-QBA was assessed by adding 0.5 mL of HBSS containing 20 μM of 2-QBA on the donor side and 0.5 mL of fresh HBSS on the receiver side. Then, a 100 μL aliquot was withdrawn from the receiver side every 30 min for 2 h and an equal volume of pre-warmed fresh HBSS was added to replenish the lost volume. To analyze the 2-QBA, 100 μL aliquots were mixed with 4 volumes of IS solution (1 ng/mL berberine in acetonitrile). The mixture was vigorously vortexed for 5 min and then centrifuged at 13,000× g for 5 min. The supernatant was transferred to autosampler vials. Subsequently, a 3 μL aliquot was injected into the LC-MS/MS system."}, "[2]": {"settings": "PO 6.25~50 mg/kg; cited from earlier work"}}}
{"smiles": "CC(C)NCC(O)COc1cccc2ccccc12", "note": "(centres unmarked) [propranolol, reference compound]", "values": [{"measurement": "Papp", "setting": "[1]", "value": "10 to 22.5", "unit": "×10⁻⁶ cm/s"}]}
{"smiles": "O=c1c(-c2ccc(O)cc2)coc2cc(O)cc(O)c12", "note": "[genistein]", "values": [{"measurement": "time within which multiple peaks appeared", "setting": "[2]", "value": "≤ 6", "unit": "h"}]}
